Entries after “also recorded” stand apart in the source; their conditions may differ. Where a name gives a salt, the structure may show the parent alone.
How the values were obtained:
[1] = system: lipocalin-2; assay: ELISA monitoring of lipocalin-2 in feces; assay type: in vivo, mice; settings: WT animals treated with NOD agonists
Method: A. Enumeration of bacterial colonies in splenocytes 48 hrs post-CTX therapy in various mouse backgrounds. Splenic cells (left panel) and mesenteric LN (middle panel) harvested from C57BL/6 WT or NOD1^−/−×NOD2^−/− mice were cultured in anaerobic conditions for 48 hours. Bacterial outgrowth was enumerated (number of colonies/plate and frequencies of positive plates/animal (right panel)) and eventually characterized by mass spectrometry for bacterial identification. B. Flow cytometric analyses of pTH17 cells. CD4^+ T cells co-expressing IFN[…]γ in the gate of live IL-17+ T splenocytes in WT versus NOD1 or NOD2 deficient mice C. Idem as in B. but experiment performed in WT animals treated with NOD agonists (MDP and TriDAP) according to the experimental setting aligned in the upper part of the graph. D. ELISA monitoring of lipocalin-2 in the feces of mice according to the experimental setting aligned in C. A representative experiment is shown for A and D. Concatenated data from 2-3 individual experiments including 3 mice/group are depicted in B-C. Anova statistical analyses: *p<0.05, **p<0.01, ***p<0.001.

[2] = system: splenic pTh17 cells; assay: Flow cytometry of splenic pTh17 / TH1 / Tc1 cells; settings: for CTX-mediated pTH17 in the spleen: WT animals treated with NOD agonists
Method: For cross-linking experiment, 2×10^5 total splenocytes per well (after red cell lysis) were incubated in MaxiSorp plates (Nunc) precoated with anti-CD3ε mAb (145-2C11) (0.5 μg per well; eBioscience) and/or anti-CD28 mAb (37.51) (2 μg/ml; BD). The supernatants were assayed at 48 h by ELISA for mouse IL-17A (eBioscience) and IFNγ (BD). […] For intracellular, cells were incubated for 4 h at 37° C. with 50 ng/ml of PMA, 1 μg/ml of ionomycin and BD Golgi STOP™. After membrane staining, cells were stained with anti-IL-17A, IFNγ, T-bet and RORγt using eBioscience FoxP3/Transcription factor staining buffer set.

[3] = system: small intestine epithelium; settings: mouse, in vivo
Method: The whole small intestine (duodenum, jejunum and ileum) was removed, cleaned from fecal content and fixed in 4% of PFA for 1 h. Re-hydration of the tissue was performed in 15% sucrose for 1 h and in 30% sucrose overnight. Depending on the experiment, the small intestine was entirely rolled, or cut into small pieces, then embedded in optimum cutting temperature (OCT) compound (Sakura), snap frozen and longitudinal or transversal […] were prepared.
For histological analyses, the longitudinal sections were counterstained with hematoxilin and eosin. For the histological quantitative analyses, inflammatory foci, altered villi and the thickness of lamina propria were scored for each section, while the number of goblet cells was counted for each villus. […] Then, a rabbit polyclonal antibody against the lysozyme protein (1:500 for 1 h, Thermo Scientific) and ALEXA FLUOR 488 Fragment of goat anti-rabbit IgG (1:300 for 1 h, Molecular Probes) were used. All steps were performed at room temperature. Lysozyme-positive areas were quantified on mosaic images using the Histolab software (Microvision Instruments). The quantification of Paneth cells was performed measuring the average area of the Lysozyme-positive clusters (group of Paneth cells) as well as the emission/μm^2 of those clusters (not shown).

[4] = system: commensal bacteria; assay type: in vivo, mice; settings: 48 h after treatment
Method: Mesenteric lymph nodes and spleens were aseptically removed, smashed in PBS and plated onto COS agar plates (BioMérieux), for aerobic and anaerobic growth. After 48 h of culture, single colonies were isolated and stocked in glycerol at −80° C.
(§1) Serial dilutions of feces from naïve mice or tumor bearers treated with NaCl or CTX, vancomycin or broad spectrum antibiotics (ATB) (ampicillin+streptomycin+colistin), were plated onto COS agar plates and after 48 h, single colonies were isolated and Gram staining was performed. The identification of specific bacteria was accomplished through the combination of morphological tests and the analysis through VITEK® automated system (BioMérieux, France) and verified in mass spectrometry (MALDI-TOF, see below) performed at Pasteur Institute, Paris, France.

[5] = system: splenocytes; assay: TCR cross-linking of splenocytes, IL-17 and IFNγ ELISA; assay type: in vivo, mice
[6] = system: MCA205 sarcomas; assay type: in vivo, C57BL/6 mice
[7] = system: tumor-infiltrating lymphocytes; assay: Flow cytometry of tumor-infiltrating lymphocytes; assay type: in vivo, mice
[8] = system: MC38-OVAdim tumor cells; assay: OVA vaccine + CTX, rechallenge with MC38-OVAdim tumor cells; assay type: in vivo, C56BL/6 mice; settings: antibiotics 20 days, rechallenge at day 50
Method: FIG. 38: Anticancer vaccines combined with CTX promote a long lasting anticancer immunity which depends on gut Gram negative bacteria. A. Experimental setting. C56BL/6 mice were treated with broad spectrum ATB (ampicilline, colistine, streptomycine) or vancomycine (which only kills Gram+ bacteria) or colistine (which only kills Gram− bacteria) for 9 days, received one ip, injection of CTX (100 mg/kg), followed 3 days later by vaccination with OVA protein in CpG adjuvants (or mock vaccines). ATB were stopped after 20 days and animals were left untreated under observation for 1 month. At day 50, all mice were rechallenged with a lethal dose of 10× times the MTD of MC38-OVA^dim tumor cells sc. B. Animals were scored on the basis of tumor outgrowth (featuring no or weak memory T cell response). The percentages of tumor-free mice was recorded for 2 experiments comprising 5 mice/group.*Anova test: p<0.05.

[9] = system: fecal commensal bacteria; assay: Culture of fecal commensals under antibiotics; assay type: in vivo, mice; settings: antibiotic in drinking water, tumor bearers
Method: Mice were treated with antibiotics 2-3 weeks before tumor implantation and continued until the end of the experiment. A mix of ampicillin (1 mg/ml)+streptomycin (5 mg/ml)+colistin (1 mg/ml) (Sigma-Aldrich) or vancomycin (0.25 mg/ml) or colistin alone (2·10^3 U/ml) were added in sterile drinking water. Solutions and bottles were changed 2-3 times a week.
as §1

[10] = system: lung adenocarcinoma; assay: Lung adenocarcinoma-bearing KP mice treated with chemotherapy
Method: Mice were either left untreated or received chemotherapy (d84, d91 and d98) in absence or presence of 0.25 mg/ml vancomycin (mixed into drinking water starting on d77 and until the end of the experiment; antibiotic-containing water was replaced biweekly). Tumor volumes were quantified on d73 and 100 (equivalent of ‘pre’ and ‘post’ chemotherapy) in anesthetized mice by noninvasive imaging as described before (Cortez-Retamozo et al., 2013).

CC(=O)N[C@H]1C(O)O[C@H](CO)[C@@H](O)[C@@H]1O[C@H](C)C(=O)N[C@@H](C)C(=O)N[C@H](CCC(=O)O)C(N)=O (mixture of isomers) [myramyl dipeptide]
release of the antimicrobial peptide lipocalin-2 in stools [1]: promoting the release | CTX-mediated pTH17 in the spleen [2]: reducing

C[C@H](N)C(=O)N[C@H](CCC(=O)NC(CCCC(N)C(=O)O)C(=O)O)C(=O)O (some centres unmarked) [TriDAP]
release of the antimicrobial peptide lipocalin-2 in stools [1]: promoting the release | CTX-mediated pTH17 in the spleen [2]: reducing

COc1cccc2c1C(=O)c1c(O)c3c(c(O)c1C2=O)C[C@@](O)(C(=O)CO)C[C@@H]3O[C@H]1C[C@H](N)[C@H](O)[C@H](C)O1 [doxorubicin, Doxorubicin hydrochloride]
inflammatory status of the gut epithelial barrier (histology) [3]: shortening of small intestinal villi, discontinuities of the epithelial barrier, interstitial edema and focal accumulation of mononuclear cells in the lamina propria | translocation of commensal bacteria into mesenteric lymph nodes and spleens, compared with CTX [4]: less so | polarization of splenic CD4+ T cells towards Th1 and Th17 pattern ([5]; day 7 after treatment): not found | dependence of tumor growth reduction on gut commensals ([6]; SPF, ATB-treated and germ-free mice): does not require gut commensals for reducing tumor growth | induction of pTh17 cells in the spleen ([2]; Doxo i.p., splenocytes 7 days later): failed to induce pTh17 cells in the spleen

CN[C@H](CC(C)C)C(=O)N[C@H]1C(=O)N[C@@H](CC(N)=O)C(=O)N[C@H]2C(=O)N[C@H]3C(=O)N[C@H](C(=O)N[C@H](C(=O)O)c4cc(O)cc(O)c4-c4cc3ccc4O)[C@H](O)c3ccc(c(Cl)c3)Oc3cc2cc(c3O[C@@H]2O[C@H](CO)[C@@H](O)[C@H](O)[C@H]2O[C@H]2C[C@](C)(N)[C@H](O)[C@H](C)O2)Oc2ccc(cc2Cl)[C@H]1O [vancomycin]
effect on CTX-induced Th17 conversion ([5]; antibiotic in drinking water): reduced | effect on the anti-tumor efficacy of CTX against MCA205 sarcoma ([6]; 3 week conditioning with antibiotic): compromised; also recorded: reduced | frequencies of tumor-infiltrating CD3+ T cells and Th1 cells ([7]; MCA205 tumors, 8 days post-CTX): reduced | γδT17 cells in tumor beds post-therapy ([7]; chemotherapy-treated tumors): devoid | effect on long term protection of an OVA-based cancer vaccine + CTX against lethal challenge [8]: did not prevent | repertoire of commensal bacteria in feces [9]: biased the repertoire of commensal bacteria towards distinct commensal species | effect on CTX-induced accumulation/differentiation of pTh17 in the spleen ([2]; MCA205 tumor bearers, 7 days after CTX): prevented; also recorded: blunts | intratumoral CD8+ T effector/Foxp3+ regulatory T cell ratio ([10]; Chemo+Vanco): reduced | effect on the anticancer efficacy of CTX-based chemotherapy ([10]; vancomycin 0.25 mg/ml in drinking water, oxaliplatin plus CTX): inhibitory role; also recorded: compromised

colistin
effect on long term protection of an OVA-based cancer vaccine + CTX against lethal challenge [8]: did | repertoire of commensal bacteria in feces [9]: promoted the outgrowth of E. faecalis

— patent US10646521B2, “Microbiota composition, as a marker of responsiveness to chemotherapy, and use of microbial modulators (pre-, pro- or synbiotics) for improving the efficacy of a cancer treatment” (INSTITUT GUSTAVE ROUSSY, priority 2013, dated 2020)
